Results: ChEMBL document CHEMBL4627384, “l-Thyroxin and the Nonclassical Thyroid Hormone TETRAC Are Potent Activators of PPARγ” (J Med Chem, 2020)
The source made the active and inactive calls. The calls are words filed in the database; no cut-off is given here.

Key:
HEK-293T = assay: Activation of renilla luciferase expressed in HEK293T cells at 15 uM incubated for 14 to 16 hrs by reporter gene assay; format: cell-based; details: Renilla reniformis
[1] = target: T1, Peroxisome proliferator-activated receptor gamma (Homo sapiens) (UniProt P37231); assay: Agonist activity at PPARgamma in human HepG2 cells with THRA knockdown assessed as induction of CD36 expression at 30 uM incubated for 8 hrs in by Western blot analysis; format: cell-based
T1 sequence (whole entry): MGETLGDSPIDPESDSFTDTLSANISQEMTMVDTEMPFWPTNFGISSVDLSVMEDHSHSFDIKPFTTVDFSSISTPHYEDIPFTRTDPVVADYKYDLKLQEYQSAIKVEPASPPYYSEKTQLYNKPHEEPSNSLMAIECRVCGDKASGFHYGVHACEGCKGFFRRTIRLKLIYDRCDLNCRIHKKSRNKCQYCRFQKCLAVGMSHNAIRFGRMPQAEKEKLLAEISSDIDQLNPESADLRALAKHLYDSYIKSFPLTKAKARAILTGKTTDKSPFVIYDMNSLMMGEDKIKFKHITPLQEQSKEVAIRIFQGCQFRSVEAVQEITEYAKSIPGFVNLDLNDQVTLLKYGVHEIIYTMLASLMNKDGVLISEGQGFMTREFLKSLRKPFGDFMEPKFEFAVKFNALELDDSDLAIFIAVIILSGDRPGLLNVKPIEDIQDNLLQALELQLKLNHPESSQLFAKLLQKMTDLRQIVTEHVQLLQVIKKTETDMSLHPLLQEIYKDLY

[2] = target: T1, Peroxisome proliferator-activated receptor gamma (Homo sapiens); assay: Agonist activity at PPARgamma in human HepG2 cells without THRA knockdown assessed as induction of CD36 expression at 30 uM incubated for 8 hrs in by Western blot analysis; format: cell-based
[3] = target: T1, Peroxisome proliferator-activated receptor gamma (Homo sapiens); assay: Agonist activity at PPARgamma in human HepG2 cells with THRB knockdown assessed as induction of CD36 expression at 30 uM incubated for 8 hrs in by Western blot analysis; format: cell-based
[4] = target: T1, Peroxisome proliferator-activated receptor gamma (Homo sapiens); assay: Agonist activity at PPARgamma in human HepG2 cells without THRB knockdown assessed as induction of CD36 expression at 1 uM incubated for 8 hrs in by Western blot analysis; format: cell-based
[5] = target: RXR alpha/PPAR gamma (Homo sapiens) (UniProt P37231+P19793); assay: Agonist activity at recombinant human pFA-CMV fused PPARgamma LBD transfected in HEK293T cells/human pFA-CMV fused RXRalpha LBD transfected in HEK293T cells assessed as increase in reporter activation at 0.1 to 3 uM incubated for 14 to 16 hrs using […]:RXRalpha LBD at ratio of 4:1 to 1:1 by dual glo luciferase reporter gene assay relative to rosiglitazone; format: cell-based; details: HEK-293T
[6] = target: T2, Thyroid hormone receptor alpha (Homo sapiens, UniProt P10827); assay: Agonist activity at THRalpha (unknown origin) incubated for 14 to 16 hrs by dual glo luciferase reporter gene assay
T2 sequence (P10827 whole entry): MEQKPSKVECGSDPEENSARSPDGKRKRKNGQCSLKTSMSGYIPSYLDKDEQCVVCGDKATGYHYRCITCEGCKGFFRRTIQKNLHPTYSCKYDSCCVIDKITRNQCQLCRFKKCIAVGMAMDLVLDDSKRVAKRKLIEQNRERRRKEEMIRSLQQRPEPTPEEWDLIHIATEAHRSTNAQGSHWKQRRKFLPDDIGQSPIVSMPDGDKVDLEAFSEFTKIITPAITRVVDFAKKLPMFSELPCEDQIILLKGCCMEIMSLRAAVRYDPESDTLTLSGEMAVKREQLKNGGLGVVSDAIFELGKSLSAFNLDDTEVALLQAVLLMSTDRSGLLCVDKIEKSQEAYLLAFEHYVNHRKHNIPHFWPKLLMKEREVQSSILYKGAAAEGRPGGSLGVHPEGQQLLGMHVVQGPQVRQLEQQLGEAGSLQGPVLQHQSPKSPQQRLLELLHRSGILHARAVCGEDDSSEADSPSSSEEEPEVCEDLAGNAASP

[7] = target: T3, Peroxisome proliferator-activated receptor gamma (Mus musculus) (UniProt P37238); assay: Agonist activity at PPARgamma in mouse 3T3L1 adipocytes assessed as induction of FABP4 mRNA expression at 1 uM by qRT-PCR analysis; format: cell-based; details: 3T3-L1
T3 sequence (whole entry): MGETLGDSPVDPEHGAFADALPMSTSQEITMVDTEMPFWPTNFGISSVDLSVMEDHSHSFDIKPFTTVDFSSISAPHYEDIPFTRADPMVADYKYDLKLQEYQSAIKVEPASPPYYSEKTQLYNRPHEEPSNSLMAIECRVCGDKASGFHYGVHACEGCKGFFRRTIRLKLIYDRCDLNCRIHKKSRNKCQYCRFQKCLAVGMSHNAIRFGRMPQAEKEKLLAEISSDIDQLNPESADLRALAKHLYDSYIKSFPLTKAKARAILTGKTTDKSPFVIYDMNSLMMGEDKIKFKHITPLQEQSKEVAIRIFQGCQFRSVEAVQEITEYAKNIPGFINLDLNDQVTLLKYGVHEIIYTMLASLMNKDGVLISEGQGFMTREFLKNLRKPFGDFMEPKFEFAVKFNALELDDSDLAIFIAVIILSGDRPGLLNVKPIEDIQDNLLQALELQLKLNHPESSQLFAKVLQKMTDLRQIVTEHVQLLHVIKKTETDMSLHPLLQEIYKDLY

[8] = target: T1, Peroxisome proliferator-activated receptor gamma (Homo sapiens); assay: Agonist activity at PPARgamma in human HepG2 cells assessed as induction of CD36 mRNA expression at 0.03 to 1 uM incubated for 8 hrs by qPCR analysis; format: cell-based
[9] = target: T4, Retinoic acid receptor RXR-alpha (Homo sapiens) (UniProt P19793); assay: Agonist activity at GFP RXRalpha LBD (unknown origin) assessed as biotin-labeled SRC-1 recruitment incubated for 2 hrs by HT-FRET assay relative to SR11237
T4 sequence (whole entry): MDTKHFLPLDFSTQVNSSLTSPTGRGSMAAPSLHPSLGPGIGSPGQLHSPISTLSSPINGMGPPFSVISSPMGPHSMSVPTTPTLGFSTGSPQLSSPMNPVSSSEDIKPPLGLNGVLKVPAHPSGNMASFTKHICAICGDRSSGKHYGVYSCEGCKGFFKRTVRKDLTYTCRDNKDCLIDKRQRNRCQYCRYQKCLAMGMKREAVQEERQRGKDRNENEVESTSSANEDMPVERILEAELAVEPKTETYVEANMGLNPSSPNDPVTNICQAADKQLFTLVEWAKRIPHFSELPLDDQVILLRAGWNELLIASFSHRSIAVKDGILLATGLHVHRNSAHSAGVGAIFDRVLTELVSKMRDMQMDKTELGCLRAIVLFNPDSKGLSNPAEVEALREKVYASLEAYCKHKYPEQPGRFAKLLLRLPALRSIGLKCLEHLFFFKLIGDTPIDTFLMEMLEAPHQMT

[10] = target: T3, Peroxisome proliferator-activated receptor gamma (Mus musculus); assay: Agonist activity at PPARgamma in mouse 3T3L1 adipocytes assessed as induction of adiponectin mRNA expression at 1 uM by qRT-PCR analysis; format: cell-based; details: 3T3-L1
[11] = target: T1, Peroxisome proliferator-activated receptor gamma (Homo sapiens); assay: Agonist activity at N-terminal GFP-fused PPARgamma LBD (unknown origin) assessed as biotin-labeled CBP recruitment incubated for 2 hrs by HT-FRET assay
[12] = target: Luciferin 4-monooxygenase (Photinus pyralis) (UniProt P08659); assay: Activation of firefly luciferase expressed in HEK293T cells at 0.1 uM incubated for 14 to 16 hrs by reporter gene assay; format: cell-based; details: HEK-293T
Sequence of Luciferin 4-monooxygenase (Photinus pyralis) (P08659 whole entry): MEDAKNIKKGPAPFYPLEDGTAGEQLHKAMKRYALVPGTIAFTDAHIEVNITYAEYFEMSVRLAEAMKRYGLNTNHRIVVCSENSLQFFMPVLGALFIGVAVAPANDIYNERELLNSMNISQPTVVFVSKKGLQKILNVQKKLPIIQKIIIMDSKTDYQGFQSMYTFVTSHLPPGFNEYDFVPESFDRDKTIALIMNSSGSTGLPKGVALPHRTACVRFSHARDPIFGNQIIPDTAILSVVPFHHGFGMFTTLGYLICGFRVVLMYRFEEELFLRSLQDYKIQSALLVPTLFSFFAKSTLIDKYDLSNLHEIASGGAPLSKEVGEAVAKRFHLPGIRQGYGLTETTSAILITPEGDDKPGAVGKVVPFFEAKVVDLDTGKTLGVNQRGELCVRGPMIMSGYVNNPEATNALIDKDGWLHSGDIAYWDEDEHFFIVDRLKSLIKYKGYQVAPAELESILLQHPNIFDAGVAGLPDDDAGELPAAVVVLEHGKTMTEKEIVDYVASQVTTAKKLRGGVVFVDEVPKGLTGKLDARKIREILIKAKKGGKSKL

| Activity [1] | Activity [2] | Activity [3] | Activity [4] | Activity [5] | EC50 [6] [nM] | Activity [7] | Activity [8] | Activity [9] [%] | Activity [10] | Activity [11] | Activity [12] | SMILES | Activity (HEK-293T) |
| --- | --- | --- | --- | --- | --- | --- | --- | --- | --- | --- | --- | --- | --- |
| Active | Active | Active | – | – | – | – | – | – | – | – | – | N[C@@H](Cc1cc(I)c(Oc2cc(I)c(O)c(I)c2)c(I)c1)C(=O)O [LEVOTHYROXINE] | inactive |
| – | – | – | Active | Active | 20 | Active | Active | 8.2 | Active | Active | inactive | O=C(O)Cc1cc(I)c(Oc2cc(I)c(O)c(I)c2)c(I)c1 [TETRAC] | – |
